Assay results as given in patent US20070254891A1, “Crystalline forms of 4-(2-fluorophenyl)-6-methyl-2-(piperazin-1-yl)thieno[2,3-d]pyrimidine” (Dynogen Pharmaceuticals, Inc., priority 2006, published 2007).

Legend:
[1] = tested on: acetic acid-induced colonic hypersensitivity; test: Visceromotor response to colorectal distension in acetic acid-sensitized rats
Method: The visceromotor behavioral response to colorectal distension was measured by counting the number of abdominal contractions recorded by a strain gauge sutured onto the abdominal musculature as described in Gunter et al., Physiol. […] A 5 cm latex balloon catheter inserted via the anal canal into the colon was used for colorectal distensions. Constant pressure tonic distensions were performed in a graded manner (15, 30 or 60 mmHg) and were maintained for a period of 10 min and the numbers of abdominal muscle contractions were recorded to measure the level of colonic sensation. A 10 min recovery was allowed between distensions.
J. Physiol. […] In the present study, a low concentration of acetic acid (1.5 ml, 0.6%) was administered intracolonically to sensitize the colon without causing histological damage to the colonic mucosa as described in previous studies (Gunter et al., supra).
Injection volume was 0.2 mL using 100% propylene glycol as the vehicle. Three consecutive colorectal distensions at 15, 30 or 60 mmHg applied at 10-min intervals were recorded. Visceromotor responses were evaluated as the number of abdominal muscle contractions recorded during the 10-min periods of colorectal distension.
Adult male rats were used in the study. […] Specifically, rats were anesthetized with Isoflurane (2%) and were instrumented with a strain gauge force transducer for recording of abdominal muscle contractions. A latex balloon and catheter were inserted 11 cm into the colon. The animals were allowed a 30-min period to completely recover from the anesthesia and were then subjected to intracolonic infusion of acetic acid (1.5 mL, 0.6%). An additional 30-min period was allowed for sensitization of the colon. […] The protocol for colorectal distension was initiated 30-min post drug administration. After a basal reading of the number of abdominal contractions with the balloon inserted but not distended, three consecutive 10-min lasting colorectal distensions at 15, 30, and 60 mmHg were applied at 10-min intervals. Colorectal sensitivity was evaluated by counting the number of reflex abdominal contractions (i.e. the visceromotor response) observed within each distension period.
The visceromotor behavioral response to colorectal distension was measured by counting the number of abdominal contractions recorded by a strain gauge sutured onto the abdominal musculature as previously described Gunter et al., referenced above. Colorectal distensions were carried out utilizing a 5 cm latex balloon catheter inserted into the colon via the anal canal. Constant pressure tonic distensions were performed in a graded manner, i.e., the pressure was increased to the desired level of 15, 30, or 60 mmHg and then maintained for a period of 10 minutes during which the number of abdominal contractions were recorded to measure the level of colonic sensation. Ten minute recovery periods were allowed following each distension.

[2] = tested on: stress-induced accelerated colonic transit; test: Water avoidance stress (WAS) model of increased colonic transit, fecal pellet output; format: in vivo, rat
Excerpt: At the end of the 1-hour stress period, the fecal pellets were counted and recorded. WAS causes an acceleration of colonic transit, which can be quantified by counting the number of fecal pellets, produced during the stress procedure. Rats were placed for 1-hour into a stress chamber onto a raised platform 7.5 cm×7.5 cm×9 cm (L×W×H) in the center of a stress chamber filled with room temperature water 8 cm in depth. The stress chamber was constructed from a rectangular plastic tub (40.2×60.2×31.2 cm). […] Ondansetron was supplied from APIN Chemicals LTD. […] MCI-225 was provided by Mitsubishi Pharma Corp. All drugs were dissolved in a vehicle of 100% propylene glycol (1,2-propanediol) by sonicating for a period of 10 minutes. Propylene glycol was obtained from Sigma Chemical Co. […] All drugs and the vehicle were administered as an i.p. injection in a volume of 0.2 mL.

[3] = tested on: small intestinal transit; test: Small Intestinal Transit Rodent Model (charcoal meal); format: in vivo, rat; settings: for Small intestinal transit, Mean (% of total length): 15 min test period
Method: Following an overnight fast, rats were brought to the laboratory in their home cages and received an i.p. injection of one of the following: […] Control rats received no treatment. The treated rats were placed back in the home cages and after 30 min, were fed a 2 mL charcoal meal via an oral gavage. Small intestinal transit was measured following 15 min test-period. Each rat was placed briefly in a glass chamber with IsoFlo for anesthesia and sacrificed. The stomach and the small intestine were removed and the total length of the small intestine was measured. Transit was then measured as the distance that the charcoal meal had traveled along the small intestine and expressed as % of the total length. Animals were randomly assigned to experimental groups and experiments were performed as illustrated in Table 11. Small intestinal transit in rats was investigated by the passage of a charcoal meal along the small intestine during a defined time period (15-min). The animals were deprived of food for 12-16 hrs prior to the experiments. Rats were given a charcoal meal (a mixture of charcoal, gum arabic, and distilled water) as a 2 mL oral gavage and were sacrificed after a 15-min test period. The distance traveled by the charcoal meal was quantified as a percent of the small intestinal length, using the following equation: Transit (%)=cm traveled by meal/cm total small intestinal length×100 […]

[4] = tested on: retching and vomiting induced by cisplatin; test: Cisplatin-induced emesis in the ferret; format: in vivo, ferret (Mustela putorius furo)
Method: Following administration of the cisplatin and either MCI-225, ondansetron or vehicle alone, the occurrence of retching and vomiting was monitored for a period of 6 hours. […] Vomiting was defined as the forceful oral expulsion of upper gastrointestinal contents. The latency of the retching or vomiting response and the number of episodes were recorded for each animal and summarized for each experimental group (Wright et al., Infect. […] Following one hour of acclimation to the observation cage, ferrets received an intraperitoneal (i.p.) injection of cisplatin (5 mg/kg in 5 mL) followed in about 2 minutes by i.p. injection of a single dose of MCI-225 or ondansetron (Rudd and Naylor, Eur. J. Pharmacol., 322: 79-82 (1997)). […] Each animal received a single-dose drug treatment. In addition, three animals received an initial dose (30 mg/kg i.p.) and a second MCI-225 injection (30 mg/kg i.p.) 180 minutes following the initial dose. […] All groups were randomized.

In the case of CNCCC(Oc1ccccc1OC)c1ccccc1 (stereo not drawn) [Nisoxetine], the “Behavior in the home cage during the experiments” value ([1]; 30 mg/kg i.p.) was “increased exploratory behavior”, the “Visceromotor response to colorectal distension” value ([1]; 3, 10 or 30 mg/kg i.p.) was “no significant effect” and the “WAS-induced fecal pellet output during 1 hour” value ([2]; 3, 10 or 30 mg/kg i.p.) was “reduced by all doses”. The “Fecal pellets produced during WAS compared to the vehicle treated group” value ([2]; 10 and 30 mg/kg i.p.) was “significantly fewer”, the “Small intestinal transit, Mean (% of total length)” value ([3]; 3 mg/kg i.p.) was 40.3% and the “Small intestinal transit, Mean (% of total length)” value ([3]; 10 mg/kg i.p.) was 38.6%. The “Charcoal meal completely retained in the stomach” value ([3]; 30 mg/kg i.p.) was 4 out of 5, the “Effect on small intestinal transit” value ([3]; 30 mg/kg i.p.) was “almost completely inhibited the transit” and the “Small intestinal transit, Mean (% of total length)” value ([3]; 30 mg/kg i.p.) was 4.7%. For the same compound, the “Effect on small intestinal transit” value ([3]; 3 or 10 mg/kg i.p.) was “tendency to decrease”.

For Cc1nccn1CC1CCc2c(c3ccccc3n2C)C1=O (stereo not drawn) [Ondansetron, reference compound], the “Responses to moderate (30 mmHg) and high (60 mmHg) intraluminal pressure” value ([1]; 10 mg/kg i.p.) was “did not abolish the responses”, the “Behavioral activity of the rats” value ([1]; 1, 5 or 10 mg/kg i.p.) was “No significant changes” and the “Number of abdominal contractions (visceromotor response)” value ([1]; 1, 5 or 10 mg/kg i.p., 15, 30, 60 mmHg) was “dose-dependent decrease”. The “Stress-induced fecal pellet output during 1 hour of WAS” value ([2]; 1, 5 and 10 mg/kg i.p.) was “dose-dependent inhibition”, the “Small intestinal transit, Mean (% of total length)” value ([3]; 1 mg/kg i.p.) was 27.6% and the “Small intestinal transit, Mean (% of total length)” value ([3]; 5 mg/kg i.p.) was 32.1%. The “Small intestinal transit, Mean (% of total length)” value ([3]; 10 mg/kg i.p.) was 18.4%, the “Effect on small intestinal transit” value ([3]; 1, 5 or 10 mg/kg i.p.) was “significant reduction” and the “Number of emetic events induced by cisplatin” value ([4]; 5 mg/kg and 10 mg/kg i.p.) was “dose-dependently reduced”. The “Latency” value ([4]; 5 mg/kg i.p.) was 288 ± 4 min, the “Retches (360 min)” value ([4]; 5 mg/kg i.p.) was 11.2 ± 7.0 and the “Total Events” value ([4]; 5 mg/kg i.p.) was 11.5 ± 7.2. The “Vomits (360 min)” value ([4]; 5 mg/kg i.p.) was 0.3 ± 0.2, the “Latency” value ([4]; 10 mg/kg i.p.) was 313 ± 32 min and the “Retches (360 min)” value ([4]; 10 mg/kg i.p.) was 2.4 ± 1.6. For the same compound, the “Total Events” value ([4]; 10 mg/kg i.p.) was 2.4 ± 1.6 and the “Vomits (360 min)” value ([4]; 10 mg/kg i.p.) was 0.0 ± 0.0.
